Assay results reported in ChEMBL document CHEMBL1140165, “Rotationally constrained 2,4-diamino-5,6-disubstituted pyrimidines: a new class of histamine H4 receptor antagonists with improved druglikeness and in vivo efficacy in pain and inflammation models” (J Med Chem, 2008).
Activity calls are given as the source filed them.

Columns and labels:
[1] = test system: Liver microsomes; experiment: Metabolic stability in rat liver microsomes; assay type: ADME, Microsome
[2] = Terminal volume of distribution in mouse at 5 mg/kg, iv; assay type: ADME, organism-based; design: dose 5 mg/kg, route intravenous; settings: in vivo, read-out: Vbeta
[3] = Ratio of drug level in brain to plasma in rat at 10 mg/kg, iv after 30 mins; assay type: ADME, organism-based; design: dose 10 mg/kg, route intravenous
[4] = Blood clearance in rat at 10 mg/kg, iv; assay type: ADME, organism-based; design: dose 10 mg/kg, route intravenous; settings: whole blood
[5] = Selectivity ratio of Ki for human histamine H4 receptor to Ki for 5HT2A receptor
[6] = molecular target: T1, Histamine H4 receptor (Mus musculus, UniProt Q91ZY2); experiment: Antagonist activity at mouse histamine H4 receptor expressed in HEK293 cells assessed as inhibition of histamine-induced intracellular calcium elevation by FLIPR assay; assay type: functional, cell-based
T1 sequence (Q91ZY2 whole entry): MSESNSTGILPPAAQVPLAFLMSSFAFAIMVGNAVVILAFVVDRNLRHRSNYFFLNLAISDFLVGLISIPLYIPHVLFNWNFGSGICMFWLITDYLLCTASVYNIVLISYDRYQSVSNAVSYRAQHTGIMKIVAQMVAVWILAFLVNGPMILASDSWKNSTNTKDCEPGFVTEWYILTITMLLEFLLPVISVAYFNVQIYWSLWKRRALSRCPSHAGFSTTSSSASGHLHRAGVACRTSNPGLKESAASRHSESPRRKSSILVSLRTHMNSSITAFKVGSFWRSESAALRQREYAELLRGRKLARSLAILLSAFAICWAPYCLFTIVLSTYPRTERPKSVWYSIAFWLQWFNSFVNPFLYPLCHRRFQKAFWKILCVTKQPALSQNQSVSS

[7] = Blood clearance in mouse at 5 mg/kg, iv; assay type: ADME, organism-based; design: dose 5 mg/kg, route intravenous; settings: whole blood
[8] = Selectivity ratio of Ki for human histamine H4 receptor to Ki for 5HT1A receptor
[9] = Half life in rat at 10 mg/kg, iv; assay type: ADME, organism-based; design: dose 10 mg/kg, route intravenous; settings: in vivo
[10] = molecular target: Cytochrome P450 2C9 (Homo sapiens, UniProt P11712); experiment: Inhibition of CYP2C9 upto 10 uM; assay type: ADME
Chain of Cytochrome P450 2C9 (P11712 whole entry): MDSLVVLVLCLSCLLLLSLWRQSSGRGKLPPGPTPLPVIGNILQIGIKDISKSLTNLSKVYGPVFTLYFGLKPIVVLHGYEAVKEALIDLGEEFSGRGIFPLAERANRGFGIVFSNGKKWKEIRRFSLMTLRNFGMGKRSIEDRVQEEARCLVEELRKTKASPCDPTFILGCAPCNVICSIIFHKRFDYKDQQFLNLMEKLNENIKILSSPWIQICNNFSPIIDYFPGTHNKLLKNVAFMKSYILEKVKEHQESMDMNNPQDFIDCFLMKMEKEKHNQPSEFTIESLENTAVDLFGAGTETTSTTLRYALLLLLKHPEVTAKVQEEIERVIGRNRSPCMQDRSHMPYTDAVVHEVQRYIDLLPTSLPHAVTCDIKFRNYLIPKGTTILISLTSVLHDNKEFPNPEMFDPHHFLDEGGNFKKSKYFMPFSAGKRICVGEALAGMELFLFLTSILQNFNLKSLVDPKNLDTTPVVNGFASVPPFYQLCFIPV

[11] = Protein binding in human; assay type: ADME, organism-based; settings: in vivo, read-out: PB (converted)
[12] = molecular target: T2, Histamine H4 receptor (Homo sapiens, UniProt Q9H3N8); experiment: Displacement of [3H]histamine from human histamine H4 receptor expressed in HEK293 cells; assay type: cell-based; settings: read-out: Ki
T2 sequence (Q9H3N8 whole entry): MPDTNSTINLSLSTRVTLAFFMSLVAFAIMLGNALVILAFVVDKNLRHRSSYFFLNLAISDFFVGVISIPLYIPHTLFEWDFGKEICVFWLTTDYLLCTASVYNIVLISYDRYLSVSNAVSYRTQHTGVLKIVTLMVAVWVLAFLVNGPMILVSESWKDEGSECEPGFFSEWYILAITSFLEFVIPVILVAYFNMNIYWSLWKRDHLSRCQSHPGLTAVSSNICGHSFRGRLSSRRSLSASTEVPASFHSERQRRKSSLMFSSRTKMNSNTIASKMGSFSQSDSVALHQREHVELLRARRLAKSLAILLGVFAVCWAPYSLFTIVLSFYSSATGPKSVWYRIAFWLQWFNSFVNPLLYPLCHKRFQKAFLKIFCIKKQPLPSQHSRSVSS

[13] = molecular target: T3, Histamine H4 receptor (Rattus norvegicus, UniProt Q91ZY1); experiment: Antagonist activity at rat histamine H4 receptor expressed in HEK293 cells assessed as inhibition of histamine-induced intracellular calcium elevation by FLIPR assay; assay type: functional, cell-based
T3 sequence (Q91ZY1 whole entry): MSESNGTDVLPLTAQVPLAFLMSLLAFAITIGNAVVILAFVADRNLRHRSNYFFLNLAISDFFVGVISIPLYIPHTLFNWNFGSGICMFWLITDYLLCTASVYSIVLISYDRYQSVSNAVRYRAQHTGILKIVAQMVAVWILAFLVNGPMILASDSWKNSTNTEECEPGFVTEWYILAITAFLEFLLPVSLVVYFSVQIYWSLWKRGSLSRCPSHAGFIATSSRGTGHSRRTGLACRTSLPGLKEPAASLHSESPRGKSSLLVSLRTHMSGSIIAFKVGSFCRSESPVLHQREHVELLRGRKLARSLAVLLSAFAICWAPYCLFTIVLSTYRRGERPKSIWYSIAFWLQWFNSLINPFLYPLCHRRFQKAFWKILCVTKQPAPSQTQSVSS

[14] = molecular target: Cytochrome P450 3A4 (Homo sapiens, UniProt P08684); experiment: Inhibition of CYP3A4 upto 10 uM; assay type: ADME
Chain of Cytochrome P450 3A4 (P08684 whole entry): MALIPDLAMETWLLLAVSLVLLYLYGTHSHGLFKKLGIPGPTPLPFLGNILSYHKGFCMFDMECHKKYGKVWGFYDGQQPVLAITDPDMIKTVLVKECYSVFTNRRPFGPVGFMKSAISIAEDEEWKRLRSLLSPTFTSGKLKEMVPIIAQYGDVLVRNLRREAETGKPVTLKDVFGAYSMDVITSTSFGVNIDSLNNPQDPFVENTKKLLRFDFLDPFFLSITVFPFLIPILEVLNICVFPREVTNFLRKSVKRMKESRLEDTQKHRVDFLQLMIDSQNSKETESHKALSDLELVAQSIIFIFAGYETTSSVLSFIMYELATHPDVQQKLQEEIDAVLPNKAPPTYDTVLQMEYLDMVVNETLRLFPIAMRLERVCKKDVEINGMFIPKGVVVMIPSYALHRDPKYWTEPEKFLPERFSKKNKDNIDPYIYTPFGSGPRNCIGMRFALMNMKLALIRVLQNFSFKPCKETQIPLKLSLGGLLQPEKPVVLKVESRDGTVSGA

[15] = Fractional bioavailability in rat at 10 mg/kg, iv and 10 mg/kg, po; assay type: ADME, organism-based; settings: in vivo
[16] = test system: Liver microsomes; experiment: Metabolic stability in human liver microsomes; assay type: ADME, Microsome
[17] = molecular target: T2, Histamine H4 receptor; settings: HEK293
[18] = Protein binding in rat; assay type: ADME, organism-based; settings: in vivo, read-out: PB (converted)
[19] = Terminal volume of distribution in rat at 10 mg/kg, iv; assay type: ADME, organism-based; design: dose 10 mg/kg, route intravenous; settings: in vivo, read-out: Vbeta
[20] = Selectivity ratio of Ki for human histamine H4 receptor to Ki for adrenergic alpha1 receptor
[21] = test system: BMMC; experiment: Blockade of histamine-induced morphological changes in BALB/c mouse BMMC by flow cytometry; assay type: functional, cell-based
[22] = Metabolic stability in mouse liver microsomes; assay type: ADME, Microsome
[23] = Selectivity ratio of Ki for human histamine H4 receptor to Ki for histamine H1 receptor
[24] = Selectivity ratio of Ki for human histamine H4 receptor to Ki for histamine H2 receptor
[25] = molecular target: T3, Histamine H4 receptor; experiment: Displacement of [3H]histamine from rat histamine H4 receptor expressed in HEK293 cells; assay type: cell-based
[26] = species on record: Homo sapiens; experiment: Selectivity ratio of Ki for human histamine H4 receptor to Ki for human histamine H3 receptor
[27] = test system: Mus musculus; experiment: Inhibition of clobenpropit-induced itching in ip dosed CD1/ICR mouse assessed as blockade of scratching in hind paw for 25 mins pretreated 30 mins before clobenpropit challenge; assay type: functional
[28] = Half life in mouse at 5 mg/kg, iv; assay type: ADME, organism-based; design: dose 5 mg/kg, route intravenous; settings: in vivo
[29] = test system: Mus musculus; experiment: Antiinflammatory activity against ip dosed BALB/c mouse assessed as inhibition of zymosan-induced peritonitis after 2 hrs pretreated 30 mins before zymosan challenge; assay type: functional
[30] = Selectivity ratio of Ki for human histamine H4 receptor to Ki for 5HT1D receptor
[31] = Fractional bioavailability in rat at 5 mg/kg, iv and 5 mg/kg, po; assay type: ADME, organism-based; settings: in vivo
[32] = Selectivity ratio of Ki for human histamine H4 receptor to Ki for dopamine D2 receptor
[33] = molecular target: Cytochrome P450 2D6 (Homo sapiens, UniProt P10635); experiment: Inhibition of CYP2D6 upto 10 uM; assay type: ADME
Chain of Cytochrome P450 2D6 (P10635 whole entry): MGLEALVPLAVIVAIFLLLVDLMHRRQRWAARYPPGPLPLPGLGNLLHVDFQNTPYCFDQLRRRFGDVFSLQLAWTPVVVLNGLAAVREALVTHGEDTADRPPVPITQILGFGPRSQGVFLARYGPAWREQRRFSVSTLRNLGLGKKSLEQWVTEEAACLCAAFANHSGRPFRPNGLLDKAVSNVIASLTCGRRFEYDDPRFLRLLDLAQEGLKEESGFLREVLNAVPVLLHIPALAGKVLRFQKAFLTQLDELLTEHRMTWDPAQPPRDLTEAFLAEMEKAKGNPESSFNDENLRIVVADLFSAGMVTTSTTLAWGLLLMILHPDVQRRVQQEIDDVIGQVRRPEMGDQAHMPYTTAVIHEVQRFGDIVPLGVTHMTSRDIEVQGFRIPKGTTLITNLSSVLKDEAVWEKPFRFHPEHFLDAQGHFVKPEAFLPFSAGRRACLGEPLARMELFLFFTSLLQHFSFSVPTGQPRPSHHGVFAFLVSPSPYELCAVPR

[34] = molecular target: Mu-type opioid receptor (Homo sapiens) (UniProt P35372); experiment: Binding affinity to mu opioid receptor
Chain of Mu-type opioid receptor (Homo sapiens) (P35372 whole entry): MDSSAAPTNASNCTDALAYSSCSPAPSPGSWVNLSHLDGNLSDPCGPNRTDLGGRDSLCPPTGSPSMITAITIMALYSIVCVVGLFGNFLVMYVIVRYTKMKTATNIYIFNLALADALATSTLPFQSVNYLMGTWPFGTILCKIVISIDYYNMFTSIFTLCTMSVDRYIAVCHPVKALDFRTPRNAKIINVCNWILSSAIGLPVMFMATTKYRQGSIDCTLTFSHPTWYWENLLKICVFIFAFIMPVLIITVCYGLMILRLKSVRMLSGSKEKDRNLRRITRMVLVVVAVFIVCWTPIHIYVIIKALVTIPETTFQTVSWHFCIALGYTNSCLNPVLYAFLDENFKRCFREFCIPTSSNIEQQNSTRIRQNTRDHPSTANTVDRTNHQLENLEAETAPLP

[35] = test system: Rattus norvegicus; experiment: Antinociceptive efficacy against von Frey hair mechanically stimulated post-surgical pain after skin incision in rat assessed as withdrawal threshold at 100 umol/kg, ip; assay type: functional
[36] = test system: Rattus norvegicus; experiment: Antinociceptive efficacy against complete Freund's adjuvant-induced thermal hyperalgesia in rat assessed as withdrawal threshold at 10 umol/kg, ip after 48 hrs; assay type: functional
[37] = molecular target: Delta-type opioid receptor (Homo sapiens) (UniProt P41143); experiment: Binding affinity to delta opioid receptor
Chain of Delta-type opioid receptor (Homo sapiens) (P41143 whole entry): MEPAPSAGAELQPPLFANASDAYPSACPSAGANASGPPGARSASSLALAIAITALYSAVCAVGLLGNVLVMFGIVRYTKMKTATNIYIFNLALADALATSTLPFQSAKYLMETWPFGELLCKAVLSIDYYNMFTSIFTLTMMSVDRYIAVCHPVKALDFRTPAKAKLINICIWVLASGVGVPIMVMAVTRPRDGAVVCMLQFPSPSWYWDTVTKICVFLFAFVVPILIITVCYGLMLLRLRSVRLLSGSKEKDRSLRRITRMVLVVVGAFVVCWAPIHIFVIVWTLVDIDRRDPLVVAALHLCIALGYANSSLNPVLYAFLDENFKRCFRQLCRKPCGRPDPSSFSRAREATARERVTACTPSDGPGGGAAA

[38] = molecular target: Prostaglandin G/H synthase 1 (Homo sapiens) (UniProt P23219); experiment: Binding affinity at COX1
Chain of Prostaglandin G/H synthase 1 (Homo sapiens) (P23219 whole entry): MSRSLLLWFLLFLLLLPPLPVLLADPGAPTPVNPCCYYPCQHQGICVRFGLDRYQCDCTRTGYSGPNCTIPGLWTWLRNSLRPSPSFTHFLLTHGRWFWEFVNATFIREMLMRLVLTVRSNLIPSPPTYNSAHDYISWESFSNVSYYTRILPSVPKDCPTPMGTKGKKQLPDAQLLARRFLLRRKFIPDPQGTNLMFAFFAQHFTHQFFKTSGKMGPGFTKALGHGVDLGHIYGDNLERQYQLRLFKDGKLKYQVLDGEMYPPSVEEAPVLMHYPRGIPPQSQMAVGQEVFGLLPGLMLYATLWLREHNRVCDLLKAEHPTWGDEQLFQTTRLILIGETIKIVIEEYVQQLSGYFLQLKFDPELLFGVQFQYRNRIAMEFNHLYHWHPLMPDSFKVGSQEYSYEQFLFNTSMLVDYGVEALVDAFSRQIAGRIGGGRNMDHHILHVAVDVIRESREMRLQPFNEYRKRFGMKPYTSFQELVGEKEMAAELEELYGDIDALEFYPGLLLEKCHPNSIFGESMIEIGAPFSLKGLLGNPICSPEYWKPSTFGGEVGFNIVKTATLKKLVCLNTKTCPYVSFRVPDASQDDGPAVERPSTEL

[39] = molecular target: Kappa-type opioid receptor (Homo sapiens) (UniProt P41145); experiment: Binding affinity to kappa opioid receptor
Chain of Kappa-type opioid receptor (Homo sapiens) (P41145 whole entry): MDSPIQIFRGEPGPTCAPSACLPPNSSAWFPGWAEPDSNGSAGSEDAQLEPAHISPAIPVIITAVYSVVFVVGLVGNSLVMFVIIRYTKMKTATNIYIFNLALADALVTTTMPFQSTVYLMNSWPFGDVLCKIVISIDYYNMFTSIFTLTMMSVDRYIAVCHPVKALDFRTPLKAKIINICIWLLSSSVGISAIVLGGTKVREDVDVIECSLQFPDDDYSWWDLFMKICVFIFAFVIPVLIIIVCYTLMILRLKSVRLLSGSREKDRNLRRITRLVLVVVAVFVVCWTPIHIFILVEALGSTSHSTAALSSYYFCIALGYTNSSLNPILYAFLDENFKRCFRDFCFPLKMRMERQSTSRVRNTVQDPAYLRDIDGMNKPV

[40] = molecular target: Cannabinoid receptor 2 (Homo sapiens) (UniProt P34972); experiment: Binding affinity to CB2 receptor
Chain of Cannabinoid receptor 2 (Homo sapiens) (P34972 whole entry): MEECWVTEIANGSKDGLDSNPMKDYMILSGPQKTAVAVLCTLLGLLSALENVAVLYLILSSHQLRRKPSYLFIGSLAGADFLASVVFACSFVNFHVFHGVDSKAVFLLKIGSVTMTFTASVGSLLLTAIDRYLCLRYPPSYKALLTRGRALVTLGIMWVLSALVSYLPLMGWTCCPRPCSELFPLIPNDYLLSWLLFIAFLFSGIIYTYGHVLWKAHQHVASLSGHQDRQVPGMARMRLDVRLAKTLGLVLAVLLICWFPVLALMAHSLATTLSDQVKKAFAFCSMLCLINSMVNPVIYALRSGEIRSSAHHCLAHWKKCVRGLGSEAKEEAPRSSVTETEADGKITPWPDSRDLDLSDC

[41] = molecular target: Cannabinoid receptor 1 (Homo sapiens) (UniProt P21554); experiment: Binding affinity to CB1 receptor
Chain of Cannabinoid receptor 1 (Homo sapiens) (P21554 whole entry): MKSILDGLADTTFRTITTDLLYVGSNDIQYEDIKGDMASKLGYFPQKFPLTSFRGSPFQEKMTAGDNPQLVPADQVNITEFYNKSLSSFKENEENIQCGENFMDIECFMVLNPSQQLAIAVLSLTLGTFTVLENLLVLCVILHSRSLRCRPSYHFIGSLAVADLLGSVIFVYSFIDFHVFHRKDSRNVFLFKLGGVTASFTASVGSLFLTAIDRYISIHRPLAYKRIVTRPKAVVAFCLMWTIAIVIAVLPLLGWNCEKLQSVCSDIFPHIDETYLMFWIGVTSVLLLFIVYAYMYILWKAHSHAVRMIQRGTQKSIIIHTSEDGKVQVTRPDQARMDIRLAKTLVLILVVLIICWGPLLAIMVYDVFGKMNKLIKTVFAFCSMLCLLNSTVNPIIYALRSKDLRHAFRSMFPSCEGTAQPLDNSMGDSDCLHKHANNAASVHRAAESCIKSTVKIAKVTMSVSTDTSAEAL

[42] = molecular target: T4, Prostaglandin G/H synthase 2 (Homo sapiens) (UniProt P35354); experiment: Binding affinity at COX2
T4 sequence (whole entry): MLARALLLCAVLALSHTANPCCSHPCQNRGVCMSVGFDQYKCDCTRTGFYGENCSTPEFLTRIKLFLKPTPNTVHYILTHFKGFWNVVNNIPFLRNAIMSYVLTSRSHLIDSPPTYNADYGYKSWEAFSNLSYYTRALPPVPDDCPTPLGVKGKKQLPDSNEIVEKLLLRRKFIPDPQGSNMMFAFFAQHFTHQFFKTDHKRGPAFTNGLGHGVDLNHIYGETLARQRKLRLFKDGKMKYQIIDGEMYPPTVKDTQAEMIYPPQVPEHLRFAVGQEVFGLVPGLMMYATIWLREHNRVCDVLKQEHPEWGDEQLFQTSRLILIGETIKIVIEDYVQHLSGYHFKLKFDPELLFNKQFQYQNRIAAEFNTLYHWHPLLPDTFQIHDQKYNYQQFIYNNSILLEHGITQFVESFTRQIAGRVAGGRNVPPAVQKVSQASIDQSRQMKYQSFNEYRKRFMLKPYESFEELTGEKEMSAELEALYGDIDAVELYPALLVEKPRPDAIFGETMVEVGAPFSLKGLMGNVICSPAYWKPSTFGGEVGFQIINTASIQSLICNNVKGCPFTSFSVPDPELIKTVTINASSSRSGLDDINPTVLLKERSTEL

[43] = test system: Rattus norvegicus; experiment: Antinociceptive efficacy against von Frey hair mechanically stimulated post-surgical pain after skin incision in rat assessed as withdrawal threshold at 500 umol/kg, ip; assay type: functional
[44] = test system: Rattus norvegicus; experiment: Antinociceptive efficacy against von Frey hair mechanically stimulated post-surgical pain after skin incision in rat assessed as withdrawal threshold at 30 umol/kg, ip; assay type: functional
[45] = test system: Rattus norvegicus; experiment: Antinociceptive efficacy against complete Freund's adjuvant-induced thermal hyperalgesia in rat assessed as withdrawal threshold at 30 umol/kg, ip after 48 hrs; assay type: functional
[46] = test system: Rattus norvegicus; experiment: Antinociceptive efficacy against von Frey hair mechanically stimulated post-surgical pain after skin incision in rat assessed as withdrawal threshold at 10 umol/kg, ip; assay type: functional
[47] = test system: Rattus norvegicus; experiment: Antinociceptive efficacy against complete Freund's adjuvant-induced thermal hyperalgesia in rat assessed as withdrawal threshold at 500 umol/kg, ip after 48 hrs; assay type: functional
[48] = test system: Rattus norvegicus; experiment: Antinociceptive efficacy against complete Freund's adjuvant-induced thermal hyperalgesia in rat assessed as withdrawal threshold at 100 umol/kg, ip after 48 hrs; assay type: functional

Compound `Nc1nc2c(c(N3CCNCC3)n1)CCCc1ccccc1-2` has a Stability [1] of 95.4 pmol/min/mg, a Vd [2] of 88.9 L/kg and a Kp at 0.5 h [3] of 2.1. For the same compound, the clearance [4] was 102 mL/min/kg, the Ratio Ki [5] was greater than 185 and the EC50 [6] was 18.2 nM. The clearance [7] was 378 mL/min/kg, the Ratio Ki [8] was 13 and the half-life [9] was 2.2 h. For the same compound, the Activity [10] was “Not Active”, the fraction unbound [11] was 0.56 and the Ki [12] was 71 nM. The EC50 [13] was 14.8 nM, the Activity [14] was “Not Active” and the bioavailability [15] was 37%. For the same compound, the Stability [16] was 14.5 pmol/min/mg, the pKb [17] was 7.13 and the fraction unbound [18] was 0.42. The Vd [19] was 19.9 L/kg, the Ratio Ki [20] was 110 and the Activity [21] was “Active”. It also gave a Stability [22] of 14 pmol/min/mg, a Ratio Ki [23] greater than 93 and a Ratio Ki [24] greater than 130. The Ki [25] was 7.59 nM, the Ratio Ki [26] was 52 and the ED50 [27] was greater than 72 µmol/kg. The half-life [28] was 4.9 h, the ED50 [29] was 21 µmol/kg and the Ratio Ki [30] was 17. The bioavailability [31] was 33%, the Ratio Ki [32] was greater than 140 and the Activity [33] was “Not Active”.

In the case of `CN[C@@H]1CCN(c2nc(N)nc3c2CCCc2ccccc2-3)C1`, the Stability [1] is reported as 173 pmol/min/mg, the Activity [34] is reported as “inactive” and the Kp at 0.5 h [3] is reported as 3. For the same compound, the Ratio Ki [5] was 2030, the EC50 [6] was 4.37 nM and the Efficacy [35] was 69%. For the same compound, the Ratio Ki [8] was 460, the Activity [10] was “Not Active” and the fraction unbound [11] was 0.51. For the same compound, the Ki [12] was 3.5 nM, the EC50 [13] was 6.61 nM and the Activity [14] was “Not Active”. For the same compound, the Stability [16] was 20.7 pmol/min/mg, the Efficacy [36] was 34% and the Activity [37] was “inactive”. It also gave a pKb [17] of 8.21, a fraction unbound [18] of 0.43 and a Ratio Ki [20] of 150. For the same compound, the Activity [21] was “Active”, the Activity [38] was “inactive” and the Stability [22] was 29.7 pmol/min/mg. The Activity [39] was “inactive”, the Activity [40] was “inactive” and the Ratio Ki [23] was greater than 1890. For the same compound, the Activity [41] was “inactive”, the Ratio Ki [24] was greater than 1300 and the Ki [25] was 5.13 nM. For the same compound, the Activity [42] was “inactive”, the Efficacy [43] was 55% and the Ratio Ki [26] was 570. The ED50 [27] was 235 µmol/kg, the Efficacy [44] was 21% and the Efficacy [45] was 35%. The ED50 [29] was 100 µmol/kg, the Efficacy [46] was 9% and the Efficacy [47] was 79%. It also gave a Ratio Ki [30] of 235, an Efficacy [48] of 49% and a Ratio Ki [32] of 1820. For the same compound, the Activity [33] was “Not Active”.
